Laboratory results published in PubChem BioAssay AID1963837 (Molecular Pharmacology Branch, DTP, NCI, 2024).
pIC50: −log10 of the molar value. Values joined by “and” are separate entries in the source; they are usually repeats but may differ in a detail not shown here. Identical values can stand only once.

Test system: 843126-344-R-J1-PDC complex spheroid viability
Experiment: Anticancer human tumor 843126-344-R-J1-PDC patient-derived melanoma cell line growth inhibition [POLQ]
Conditions: for viability, T/C: stronger effect = lower value
Description: Multicellular complex tumor spheroid response to Polymerase (POL) inhibitors (novobiocin, ART-558, RP6685) in combination with a variety of drugs and investigational agents in selected tumor cell lines
The POL inhibitors (novobiocin, ART-558, and RP6685) were evaluated both individually and in combination with standard of care and investigational anticancer small molecules within a complex spheroid model of solid tumors. . Complex spheroids include a stromal component modeled by human endothelial cells (HUVEC) and fibroblasts modeled by human mesenchymal stem cells (MSCs). The concentration ranges selected for each drug and investigational agent were based upon clinically achievable concentrations if the clinical Cmax of the agent was known.
Compounds. The drugs and investigational agents: novobiocin (NSC847541), ART-558 (NSC835418), RP-6685 (NSC848927), peposertib (NSC802822), ceralasertib (NSC780249), elimusertib (NSC800525), camonsertib (NSC841442), AZD-1390 (NSC803789), olaparib (NSC753686), talazoparib (NSC767125), rucaparib (NSC756644), sotorasib (NSC818433), MRTX-1133 (NSC836407), SN-38 (NSC673596), topotecan (NSC609699), epotoside (NSC141540), doxorubicin (NSC123127), gemcitabine (NSC613327), 5-fluorouracil (NSC19893), paclitaxel (NSC125973), vemurafenib (NSC761431), MSA-2 (NSC828583), SN-011 (NSC837082), adavosertib (NSC754352), prexasertib (NSC758257), carboplatin (NSC241240) and oxaliplatin (NSC266046), were obtained from the National Cancer Institute (NCI) Developmental Therapeutics Program Chemical Repository (21). The FDA-approved anticancer drug set is available from the Developmental Therapeutics Program at https://dtp.cancer.gov/organization/dscb/obtaining/. […] The stock solutions were prepared in dimethyl sulfoxide (DMSO, Sigma-Aldrich, St. Louis, MO, cat. D2650), except for the platinum compounds which were prepared in saline (Quality Biological, Gaithersburg, MD, cat. 114-055-101), at 800-fold the tested concentration and stored at -70 degrees C prior to their use. All drugs and investigational agents were tested over a range starting from a high concentration at or near the clinical Cmax and decreasing in half-log increments. If the clinical Cmax for an agent had not been determined, the highest concentration tested was 10 microM, except for SN-38, which was tested at a high concentration of 1 microM.
Cell Culture. All cells were maintained in an incubator at 37 degrees C and 5% CO2 with 95% humidity. The PDC lines were cultured according to standard operating procedures established by the NCI PDMR (https://pdmr.cancer.gov). Table 3 of the manuscript, lists the cell lines along with the number of the three cell types plated to form the mct-spheroids and media for tumor cell growth. After thawing, all PDC lines, except 997537-175-T-J1-PDC and 415267-285-R-J2-PDC, were cultured in Matrigel-coated flasks prepared with a working solution of 1X Ham's F-12 nutrient mix, without supplementation (Thermo Fisher Scientific, cat. 11765054), 100 U/mL penicillin-streptomycin (Thermo Fisher Scientific, cat. 15140122), and 2.5% Matrigel (Corning Inc., Corning, NY, cat. 354248) for the first three passages. The two PDC lines 997537-175-T-J1-PDC and 415267-285-R-J2-PDC were cultured on uncoated flasks. The 857933-349-R-J2-PDC line was cultured in 6C/Colon 1B media containing advanced DMEM/F-12 (Thermo Fisher Scientific, cat. 12634028), 10 mM HEPES (Thermo Fisher Scientific, cat. 15630080), 1X GlutaMAX supplement (Thermo Fisher Scientific, cat. 35050061), 0.1 mg/mL primocin (InvivoGen, San Diego, CA, cat. ant-pm-2), 10% defined fetal bovine serum, heat inactivated (HyClone Laboratories Inc., Logan, UT, cat. SH30070.03HI), 50% L-WRN conditioned media (ATCC, cat. CRL-3276), 1.25 mM N-Acetyl-L-cysteine (Sigma-Aldrich, cat. A9165), 10 mM nicotinamide (Sigma-Aldrich, cat. N0636), 1X B-27 supplement (Thermo Fisher Scientific, cat. 17504044), 1X N-2 supplement (Thermo Fisher Scientific, cat. […]
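For viability, T/C in this document: spheroids exposed to drugs for seven days before readout.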

In the case of `CC(=O)O[C@H]1C(=O)[C@@]2(C)[C@H]([C@H](OC(=O)c3ccccc3)[C@]3(O)C[C@H](OC(=O)[C@H](O)[C@@H](NC(=O)c4ccccc4)c4ccccc4)C(C)=C1C3(C)C)[C@]1(OC(C)=O)CO[C@@H]1C[C@@H]2O`, the viability, T/C (compound 0.00949 µM) was 65.3% and 60.5%, the viability, T/C (compound 0.03 µM) was 54.6% and 53.3% and the viability, T/C (compound 0.0949 µM) was 64.2% and 54.8%. For the same molecule, the viability, T/C (compound 0.3 µM) was 75.2% and 57%, the viability, T/C (compound 0.949 µM) was 74.7% and 55.3% and the viability, T/C (compound 3 µM) was 76% and 66.8%. The pIC50 (curve of compound) was under 5.52.

`CCc1c2c(nc3ccc(O)cc13)-c1cc3c(c(=O)n1C2)COC(=O)[C@]3(O)CC` was tested, and the viability, T/C (compound 0.00316 µM) was 62.8% and 69.6% and 70%, the viability, T/C (compound 0.01 µM) was 52.5% and 56.2% and 54.6% and the viability, T/C (compound 0.0316 µM) was 61.5% and 68% and 63%. The viability, T/C (compound 0.1 µM) was 71.1% and 62.4% and 61.4%, the viability, T/C (compound 0.316 µM) was 57% and 64% and 62.5% and the viability, T/C (compound 1 µM) was 53.9% and 45.5% and 50.1%. It also gave a pIC50 (curve of compound) of under 6.00.

In the case of `COc1cc2cc(C(=O)CCC(=O)O)sc2cc1OC`, the viability, T/C (compound 0.0316 µM) was 87.3% and 78.3% and 95.9%, the viability, T/C (compound 0.1 µM) was 84.1% and 94.8% and 93.8% and the viability, T/C (compound 0.316 µM) was 94.1% and 97.4% and 110%. For the same molecule, the viability, T/C (compound 1 µM) was 89.5% and 93.5% and 88.7%, the viability, T/C (compound 3.16 µM) was 86.9% and 84.8% and 98.1% and the viability, T/C (compound 10 µM) was 112% and 90.1% and 96.6%. For the same molecule, the pIC50 (curve of compound) was under 5.00.

`CC1COCCN1c1cc(C2(S(C)(=N)=O)CC2)nc(-c2ccnc3[nH]ccc23)n1` (configuration not stated) was tested, and the viability, T/C (compound 0.0316 µM) was 87.2% and 79.8% and 109%, the viability, T/C (compound 0.1 µM) was 93.7% and 82.8% and 102% and the viability, T/C (compound 0.316 µM) was 97.2% and 83.1% and 95%. The viability, T/C (compound 1 µM) was 81.4% and 97.7% and 89.5%, the viability, T/C (compound 3.16 µM) was 73.4% and 81.9% and 68% and the viability, T/C (compound 10 µM) was 49.9% and 55.9% and 55.2%. It also gave a pIC50 (curve of compound) of under 5.00.

Work on `CC1COCCN1c1cc(C2(S(C)(=N)=O)CC2)nc(-c2ccnc3[nH]ccc23)n1` (configuration not stated) + Cc1cccc(N(C)C(=O)C2C(O)CCN2c2nc(C)cc(C(F)(F)F)c2C#N)c1 yielded a pIC50 (curve of first compound, second compound 0.0316 µM) of under 5.00, a pIC50 (curve of first compound, second compound 0.1 µM) of under 5.00 and a pIC50 (curve of first compound, second compound 0.316 µM) of under 5.00. For the same molecule, the pIC50 (curve of first compound, second compound 1 µM) was under 5.00, the pIC50 (curve of first compound, second compound 3.16 µM) was under 5.00 and the pIC50 (curve of first compound, second compound 10 µM) was under 5.00. For the same molecule, the viability, T/C (second compound 0.0316 µM, first compound 0.0316 µM) was 102%, the viability, T/C (second compound 0.0316 µM, first compound 0.1 µM) was 80.2% and the viability, T/C (second compound 0.0316 µM, first compound 0.316 µM) was 74.1%. It also gave a viability, T/C (second compound 0.0316 µM, first compound 1 µM) of 84.5%, a viability, T/C (second compound 0.0316 µM, first compound 3.16 µM) of 76.2% and a viability, T/C (second compound 0.0316 µM, first compound 10 µM) of 51.1%. It also gave a viability, T/C (second compound 0.1 µM, first compound 0.0316 µM) of 91.3%, a viability, T/C (second compound 0.1 µM, first compound 0.1 µM) of 87.6% and a viability, T/C (second compound 0.1 µM, first compound 0.316 µM) of 97.2%. For the same molecule, the viability, T/C (second compound 0.1 µM, first compound 1 µM) was 81.5%, the viability, T/C (second compound 0.1 µM, first compound 3.16 µM) was 79.3% and the viability, T/C (second compound 0.1 µM, first compound 10 µM) was 55.8%. For the same molecule, the viability, T/C (second compound 0.316 µM, first compound 0.0316 µM) was 81.6%, the viability, T/C (second compound 0.316 µM, first compound 0.1 µM) was 107% and the viability, T/C (second compound 0.316 µM, first compound 0.316 µM) was 76.6%. The viability, T/C (second compound 0.316 µM, first compound 1 µM) was 80.3%, the viability, T/C (second compound 0.316 µM, first compound 3.16 µM) was 66.6% and the viability, T/C (second compound 0.316 µM, first compound 10 µM) was 58.5%. For the same molecule, the viability, T/C (second compound 1 µM, first compound 0.0316 µM) was 94.1%, the viability, T/C (second compound 1 µM, first compound 0.1 µM) was 86.7% and the viability, T/C (second compound 1 µM, first compound 0.316 µM) was 90.6%. The viability, T/C (second compound 1 µM, first compound 1 µM) was 82.4%, the viability, T/C (second compound 1 µM, first compound 3.16 µM) was 65.8% and the viability, T/C (second compound 1 µM, first compound 10 µM) was 57.6%. For the same molecule, the viability, T/C (second compound 3.16 µM, first compound 0.0316 µM) was 93.9%, the viability, T/C (second compound 3.16 µM, first compound 0.1 µM) was 95.1% and the viability, T/C (second compound 3.16 µM, first compound 0.316 µM) was 111%. The viability, T/C (second compound 3.16 µM, first compound 1 µM) was 83.7%, the viability, T/C (second compound 3.16 µM, first compound 3.16 µM) was 78.4% and the viability, T/C (second compound 3.16 µM, first compound 10 µM) was 54.5%. The viability, T/C (second compound 10 µM, first compound 0.0316 µM) was 81.1%, the viability, T/C (second compound 10 µM, first compound 0.1 µM) was 70% and the viability, T/C (second compound 10 µM, first compound 0.316 µM) was 91%. For the same molecule, the viability, T/C (second compound 10 µM, first compound 1 µM) was 83.3%, the viability, T/C (second compound 10 µM, first compound 3.16 µM) was 72.2% and the viability, T/C (second compound 10 µM, first compound 10 µM) was 55.3%.

`CC(C)n1c(=O)n(C)c2cnc3cc(F)c(-c4ccc(OCCCN5CCCCC5)nc4)cc3c21` was tested, and the viability, T/C (compound 0.0316 µM) was 88.2% and 82.8% and 83.5%, the viability, T/C (compound 0.1 µM) was 74.9% and 88.6% and 77.2% and the viability, T/C (compound 0.316 µM) was 89% and 79.8% and 78.8%. For the same molecule, the viability, T/C (compound 1 µM) was 86.1% and 87.7% and 92.9%, the viability, T/C (compound 3.16 µM) was 72.1% and 79.5% and 84.4% and the viability, T/C (compound 10 µM) was 72.5% and 79.1% and 55.2%. For the same molecule, the pIC50 (curve of compound) was under 5.00.
